# Source: patent US20080063628A1, “METHODS TO PROMOTE CELL DIFFERENTIATION” (priority 2006, published 2008)
# System: early passage (P5) pancreatic-derived stromal cell line
# Assay: Two sequential low dose trichostatin A treatments, gene expression by RT-PCR (Example 7)
# Format: cell-based, human
# Conditions: for HNF (HNF-3 beta) gene expression / Insulin gene expression / Pdx-1 gene expression / glucagon gene expression: 1.25 μM 0-24 h + 96-120 h; for HNF-3 beta RT-PCR detection cycle / Pdx-1 RT-PCR detection cycle / glucagon RT-PCR detection cycle: 1.25 μM
# Method: Several cell lines obtained from different amniotic fluid specimens (see Example 14) and pancreas donors (see Example 13) were tested with similar results. Two lines at similar passage number but derived from different amniotic fluid specimens are shown in Table VII-A and Table VII-B for this example. One of these cell lines was also used in examples 2 and 4 above. In addition, this example also contains comparison data in Table VII-C and Table VII-D for a single pancreatic-derived stromal line grown to early and late passage number.
# Amniotic fluid derived cells or pancreatic-derived stromal cells were seeded into 24-well tissue culture plates at a density of 5000/cm^2 and cultured in AMNIOMAX (Invitrogen) or DMEM with 10% FBS respectively under standard cell culture conditions until confluent. After the cells reached confluency, amniotic fluid derived cells were treated at time 0 hours with a dose of 500 nM trichostatin A, and pancreatic-derived stromal cells were treated with a dose of 1.25 μM trichostatin A solubilized in DMSO and medium. At time 24 hours, cell cultures underwent a complete medium change to remove all traces of trichostatin A. At time 96 hours, cell cultures were re-fed with fresh medium and received a second dose of trichostatin A at the same concentration as used previously. […]
# Samples were taken daily for RT-PCR at the times indicated in Table VII-A to D. The culture medium was removed, and samples were rinsed in PBS then collected in RLT with β-mercaptoethanol (Qiagen). RNA was purified using the RNeasy Mini Kit (Qiagen) and RNA quantity and quality were determined using a spectrophotometer. cDNA was made using the iScript cDNA synthesis kit (BioRad).
# Samples of 20 ng cDNA were used in each reaction to determine the expression levels of the following genes in amniotic fluid-derived cells: Gata1, HNF-3 beta, Pdx-1, insulin, and Sox17. Similarly, samples of 20 ng cDNA were used in each reaction to determine the expression level of the following genes in pancreatic-derived cells: glucagon, HNF-3 beta, insulin and Pdx-1. Real-Time PCR was performed on the Applied Biosystems 7500, and data was analyzed using the accompanying software according to the methods described in Example 15.
# Real-time PCR amplifcation and quantitative analysis. Unless otherwise stated, all reagents were purchased from Applied Biosystems. Real-time PCR reactions were performed using the ABI PRISM™ 7500 Sequence Detection System. TAQMAN™ FAST UNIVERSAL PCR MASTER MIX™ (ABI, CA) was used with 20 ng of reverse transcribed RNA in a total reaction volume of 20 μl. Each cDNA sample was run in duplicate to allow correction of pipetting errors. Primers and FAM-labeled TAQMAN™ probes were used at concentrations of 200 nM. The level of expression for each target gene was normalized using the pre-developed Applied Biosystem's human glyceraldehyde-3-phosphate dehydrogenase (GAPDH) endogenous control kit. Primers and probes were designed using either ABI PRISM PRIMER EXPRESS™ software or a pre-developed ABI gene analysis kit. For each gene, either one of the primers or the probe were designed to be exon-boundary spanning. This eliminated the possibility of the primers/probe binding to any genomic DNA present. The primer and probe sets are listed as follows: Pdx-1 (Hs00426216), Insulin (Hs00355773), glucagon (Hs00174967), and FoxA2 (HNF 3-beta) (Hs00232764). The remaining primers were designed using the PRIMERS program (ABI, CA). After an initial 95° C. incubation for 20 sec, samples were cycled 40 times in two stages: a denaturation step at 95° C. for 3 sec, followed by an annealing/extension step at 60° C. for 30 sec.
# For each primer/probe set, a cycle time value was determined as the cycle number at which the fluorescence intensity of the PCR reaction reached a specific value in the middle of the exponential region of amplification. […]
# [1] = 24 hours following the addition
smiles,measurement,setting,value
CC(/C=C/C(=O)NO)=C\[C@@H](C)C(=O)c1ccc(N(C)C)cc1 [trichostatin A],HNF (HNF-3 beta) gene expression,24 hrs,+++ (detectable at less than 35 cycles by RT-PCR with SE less than 0.9)
same,Insulin gene expression,24 hrs,nd (not detectable at >40 cycles by RT-PCR)
same,Pdx-1 gene expression,24 hrs,+++ (detectable at less than 35 cycles by RT-PCR with SE less than 0.9)
same,glucagon gene expression,24 hrs,+++ (detectable at less than 35 cycles by RT-PCR with SE less than 0.9)
same,HNF (HNF-3 beta) gene expression,48 hrs,nd (not detectable at >40 cycles by RT-PCR)
same,Insulin gene expression,48 hrs,nd (not detectable at >40 cycles by RT-PCR)
same,Pdx-1 gene expression,48 hrs,nd (not detectable at >40 cycles by RT-PCR)
same,glucagon gene expression,48 hrs,+ (detectable between 35 and 40 cycles by RT-PCR)
same,HNF (HNF-3 beta) gene expression,72 hrs,nd (not detectable at >40 cycles by RT-PCR)
same,Insulin gene expression,72 hrs,nd (not detectable at >40 cycles by RT-PCR)
same,Pdx-1 gene expression,72 hrs,nd (not detectable at >40 cycles by RT-PCR)
same,glucagon gene expression,72 hrs,nd (not detectable at >40 cycles by RT-PCR)
same,HNF (HNF-3 beta) gene expression,96 hrs,nd (not detectable at >40 cycles by RT-PCR)
same,Insulin gene expression,96 hrs,nd (not detectable at >40 cycles by RT-PCR)
same,Pdx-1 gene expression,96 hrs,nd (not detectable at >40 cycles by RT-PCR)
same,glucagon gene expression,96 hrs,nd (not detectable at >40 cycles by RT-PCR)
same,HNF (HNF-3 beta) gene expression,120 hrs,+++ (detectable at less than 35 cycles by RT-PCR with SE less than 0.9)
same,Insulin gene expression,120 hrs,nd (not detectable at >40 cycles by RT-PCR)
same,Pdx-1 gene expression,120 hrs,+++ (detectable at less than 35 cycles by RT-PCR with SE less than 0.9)
same,glucagon gene expression,120 hrs,+ (detectable between 35 and 40 cycles by RT-PCR)
same,HNF (HNF-3 beta) gene expression,144 hrs,nd (not detectable at >40 cycles by RT-PCR)
same,Insulin gene expression,144 hrs,nd (not detectable at >40 cycles by RT-PCR)
same,Pdx-1 gene expression,144 hrs,nd (not detectable at >40 cycles by RT-PCR)
same,glucagon gene expression,144 hrs,+ (detectable between 35 and 40 cycles by RT-PCR)
same,HNF-3 beta RT-PCR detection cycle,[1],34 cycles
same,Pdx-1 RT-PCR detection cycle,[1],34 cycles
same,HNF-3 beta RT-PCR detection cycle,after the second addition,33 cycles
same,Pdx-1 RT-PCR detection cycle,after the second addition,33 cycles
same,glucagon RT-PCR detection cycle,after the second treatment cycle,37 cycles
same,glucagon RT-PCR detection cycle,first 48 hours after addition,34 cycles
